Data on 10 molecules can be found in patent US8927559B2, “Quinazolinone-type compounds as CRTH2 antagonists” (Merck Sharp & Dohme Corp., priority 2010, dated 2015).

Structures are written as SMILES. pKi: −log10 of the molar value.

A word on the pKi: it is the Ki on a negative log10 scale, so that one unit is a factor of ten.

In this assay the target is T1, CRTH2 receptor (hCRTH2) (Homo sapiens, UniProt Q9Y5Y4).
T1 construct: expressed in transfected cells; host or cells: HEK cells (HEK-hCRTH2 cell line), membranes
T1 sequence (Q9Y5Y4 1-395): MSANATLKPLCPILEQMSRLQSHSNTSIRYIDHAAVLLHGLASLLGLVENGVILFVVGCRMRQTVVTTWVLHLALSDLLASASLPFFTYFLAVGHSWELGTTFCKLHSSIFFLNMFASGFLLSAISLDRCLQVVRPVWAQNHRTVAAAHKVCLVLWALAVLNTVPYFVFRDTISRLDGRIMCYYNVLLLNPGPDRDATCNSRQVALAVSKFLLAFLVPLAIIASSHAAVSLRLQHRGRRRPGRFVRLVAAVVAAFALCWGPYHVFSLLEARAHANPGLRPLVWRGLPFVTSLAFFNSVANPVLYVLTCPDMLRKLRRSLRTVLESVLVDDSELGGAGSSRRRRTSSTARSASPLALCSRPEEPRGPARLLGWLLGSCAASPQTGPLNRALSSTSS
In words: Radioligand binding assay ([3H]PGD2 competition, membranes of HEK-hCRTH2 cell line). To be noted: 3.0 nM [3H]PGD2, HEK-hCRTH2 membranes, 60 min, room temperature; read-out: Ki. In outline:
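Membranes (8-20 μg protein) from HEK cells expressing human CRTH2 were incubated with [3H]PGD2 and competitor in 1% DMSO for 60 min at room temperature. Non-specific binding was defined with excess PGD2. Bound radioactivity was separated by filtration and counted by melt-on scintillation.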
`O=C(O)CCCCc1nc2cc(-c3cc(COCc4ccnc5ccccc45)on3)ccc2c(=O)n1-c1ccc(F)cc1` [Example 284]: the pKi was 7.30 to 8.00.

`C[C@@H]1C(c2ccc3c(=O)n(-c4ccc(F)cc4)c(CCCCC(=O)O)nc3c2)=NO[C@@H]1c1ccccc1` [Example 285]: the negative logarithm of the Ki (pKi) is no less than 8.00.

Consider `C[C@H]1C(c2ccc3c(=O)n(-c4ccc(F)cc4)c(CCCCC(=O)O)nc3c2)=NO[C@@H]1c1ccccc1` [Example 286], for which the pKi was no less than 8.00.

As for `C[C@H]1ON=C(c2ccc3c(=O)n(-c4ccc(F)cc4)c(CCCCC(=O)O)nc3c2)[C@H]1c1ccccc1` [Example 287], the negative logarithm of the Ki (pKi) was no less than 8.00.

On to `C[C@]1([C@H](O)c2ccc(F)cc2)CC(c2ccc3c(=O)n(-c4ccc(F)cc4)c(CCCCC(=O)O)nc3c2)=NO1` [Example 288], for which the negative logarithm of the Ki (pKi) was 7.30 to 8.00.

Regarding `C[C@@]1([C@H](O)c2ccc(F)cc2)CC(c2ccc3c(=O)n(-c4ccc(F)cc4)c(CCCCC(=O)O)nc3c2)=NO1` [Example 289], the pKi is no less than 8.00.

For `C[C@]1([C@@H](O)c2ccc(F)cc2)CC(c2ccc3c(=O)n(-c4ccc(F)cc4)c(CCCCC(=O)O)nc3c2)=NO1` [Example 290], the pKi was no less than 8.00.

As for `C[C@@]1([C@@H](O)c2ccc(F)cc2)CC(c2ccc3c(=O)n(-c4ccc(F)cc4)c(CCCCC(=O)O)nc3c2)=NO1` [Example 291], the negative logarithm of the Ki (pKi) was 7.30 to 8.00.

For `C[C@]1(Cc2ccc(F)cc2)CC(c2ccc3c(=O)n(-c4ccc(F)cc4)c(CCCCC(=O)O)nc3c2)=NO1` [Example 292], the pKi is 7.30 to 8.00.

With `C[C@@]1(Cc2ccc(F)cc2)CC(c2ccc3c(=O)n(-c4ccc(F)cc4)c(CCCCC(=O)O)nc3c2)=NO1` [Example 293], the pKi is 7.30 to 8.00.
